Our source for the IC50 values is article PMC4338257 (Drug Design, Development and Therapy, 2015).

The target in this assay is human ether-à-go-go-related gene (hERG) channel (Kv11.1) (Homo sapiens, UniProt Q12809). In words: whole-cell patch clamp in HEK […] cells stably expressing hERG. In kind it is cell-based. In general terms: The patch-clamp technique gives a direct electrical read-out from membranes.

As usually defined, the IC50 is the concentration at which inhibition is half-maximal. Low values mean inhibition by little substance, high ones a need for much substance.

Each structure is given as a SMILES string.

Chain of human ether-à-go-go-related gene (hERG) channel (Kv11.1) (Q12809 whole entry): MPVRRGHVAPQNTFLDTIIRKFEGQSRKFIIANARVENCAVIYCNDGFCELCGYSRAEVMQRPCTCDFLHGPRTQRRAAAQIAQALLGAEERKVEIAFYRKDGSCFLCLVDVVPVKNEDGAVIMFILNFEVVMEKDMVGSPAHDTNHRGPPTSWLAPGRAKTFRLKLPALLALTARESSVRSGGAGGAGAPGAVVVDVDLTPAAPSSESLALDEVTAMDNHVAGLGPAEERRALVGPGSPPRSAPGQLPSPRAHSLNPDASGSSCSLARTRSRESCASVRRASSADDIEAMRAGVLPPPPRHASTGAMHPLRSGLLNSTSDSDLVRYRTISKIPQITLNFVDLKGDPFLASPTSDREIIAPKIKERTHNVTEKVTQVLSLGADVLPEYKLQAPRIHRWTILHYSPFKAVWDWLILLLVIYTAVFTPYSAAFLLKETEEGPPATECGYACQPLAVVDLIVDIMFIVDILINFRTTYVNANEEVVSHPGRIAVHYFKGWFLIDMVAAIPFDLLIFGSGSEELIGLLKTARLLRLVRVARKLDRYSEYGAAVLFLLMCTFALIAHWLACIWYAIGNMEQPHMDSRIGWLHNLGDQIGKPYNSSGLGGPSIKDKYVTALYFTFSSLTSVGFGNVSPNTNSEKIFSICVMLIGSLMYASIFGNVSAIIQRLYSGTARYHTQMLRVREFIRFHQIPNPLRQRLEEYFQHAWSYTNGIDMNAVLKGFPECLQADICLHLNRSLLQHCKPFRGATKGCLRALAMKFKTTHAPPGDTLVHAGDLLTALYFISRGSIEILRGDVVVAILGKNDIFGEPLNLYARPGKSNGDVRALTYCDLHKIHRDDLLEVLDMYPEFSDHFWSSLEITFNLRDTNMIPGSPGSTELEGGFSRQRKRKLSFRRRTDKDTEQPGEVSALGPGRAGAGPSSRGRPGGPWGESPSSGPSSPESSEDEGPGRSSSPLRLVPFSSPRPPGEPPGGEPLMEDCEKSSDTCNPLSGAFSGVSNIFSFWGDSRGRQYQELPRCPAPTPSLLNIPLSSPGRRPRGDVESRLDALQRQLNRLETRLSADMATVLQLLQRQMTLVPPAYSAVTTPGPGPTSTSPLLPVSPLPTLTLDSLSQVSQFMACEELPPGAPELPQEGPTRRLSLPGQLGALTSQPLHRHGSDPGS

`Cc1ncc2n1-c1ccc(Cl)cc1C(c1ccccc1F)=NC2` [midazolam] gave an IC50 of 13.6 µM.
